Values quoted from earlier work as cited in paper PMC3964610 (Methods in molecular biology (Clifton, N.J.), 2012).

Conditions: I.P. 10 mg/kg, male Swiss Albino mice, plasma; ref [17]

Structure (SMILES): CCC(=O)N1CCN(c2ccc(-n3c(=O)ccc4cnc5ccc(-c6cnc7ccccc7c6)cc5c43)cc2C(F)(F)F)CC1 [Torin1, 1-(4-(4-propionylpiperazin-1-yl)-3-(trifluoromethyl)phenyl)-9-(quinolin-3-yl)benzo[h][1,6]naphthyridin-2(1H)-one]
- AUC: 5718 ng·h/mL
- Cmax: 5121 ng/mL
- Tmax: 4.8 min
